Measurements from patent US11161856B2 (H. Lundbeck A/S, priority 2017, dated 2021).

What was measured:
MAGL [1] = target: T1, MAGL (Mus musculus, UniProt O35678); assay: Mouse brain proteomes from inhibitor treated mice (oral gavage, brain proteome ABPP 4 h after administration); type: in vivo; conditions: mouse brain proteome 4 h after administration
T1 construct: from tissue; host or cells: brain of wild-type C57Bl/6J mice dosed by oral gavage
T1 sequence (O35678 1-303): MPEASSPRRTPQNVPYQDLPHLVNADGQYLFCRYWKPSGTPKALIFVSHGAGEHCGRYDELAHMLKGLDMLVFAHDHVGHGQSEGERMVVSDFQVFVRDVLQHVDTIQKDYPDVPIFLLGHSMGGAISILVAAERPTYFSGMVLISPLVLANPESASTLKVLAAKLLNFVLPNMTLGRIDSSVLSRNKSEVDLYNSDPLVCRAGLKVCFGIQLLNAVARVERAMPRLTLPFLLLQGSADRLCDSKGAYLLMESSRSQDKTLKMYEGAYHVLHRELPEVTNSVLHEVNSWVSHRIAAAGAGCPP
Method: Preparation of Mouse Brain Proteomes from Inhibitor Treated Mice.
Inhibitors were administered to wild-type C57B1/6J by oral gavage in a vehicle of polyethylene glycol. Each animal was sacrificed 4 h following administration and brain proteomes were prepared and analyzed according to previously established methods (See Niphakis, M. J., et al. (2011) ACS Chem. Neurosci. and Long, J. Z., et al. Nat. Chem. Biol. 5:37-44).

MGLL = target: T2, MGLL (Mus musculus, UniProt O35678); assay: In vitro competitive activity-based protein profiling, mouse brain proteome (MGLL); type: biochemical; conditions: for % Inh MGLL Brain (Mouse, μM): concentration not given (μM)
T2 construct: Brain; from tissue; host or cells: mouse brain proteome
T2 sequence (O35678 1-303): T1 sequence (O35678 1-303)

ABHD6 = target: T3, ABHD6 (Mus musculus, UniProt Q8R2Y0); assay: In vitro competitive activity-based protein profiling, mouse brain proteome (ABHD6); type: biochemical; conditions: for % Inh ABHD6 Brain (Mouse, μM): mouse brain proteome, concentration not given (μM)
T3 construct: Brain; from tissue; host or cells: mouse brain proteome
T3 sequence (Q8R2Y0 1-336): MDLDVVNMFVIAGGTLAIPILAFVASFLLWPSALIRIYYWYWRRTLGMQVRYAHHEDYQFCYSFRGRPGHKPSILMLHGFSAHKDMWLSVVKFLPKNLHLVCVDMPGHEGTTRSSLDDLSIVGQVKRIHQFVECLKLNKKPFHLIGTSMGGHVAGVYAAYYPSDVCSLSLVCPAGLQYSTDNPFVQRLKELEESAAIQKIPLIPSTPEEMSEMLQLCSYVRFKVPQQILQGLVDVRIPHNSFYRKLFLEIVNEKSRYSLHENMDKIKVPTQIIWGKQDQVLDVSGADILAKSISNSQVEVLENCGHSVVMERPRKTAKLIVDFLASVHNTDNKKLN
Method: [The source words this procedure for another target and reports this target under the same test.] In Vitro Competitive Activity-Based Protein Profiling.
Proteomes (human prefrontal cortex or cell membrane fractions) (50 μL, 1.0 mg/mL total protein concentration) were preincubated with varying concentrations of inhibitors at 37° C. After 30 min, FP-Rh or HT-01 (1.0 μL, 50 μM in DMSO) was added and the mixture was incubated for another 30 min at room temperature. Reactions were quenched with SDS loading buffer (15 μL-4×) and run on SDS-PAGE.

MAGL [2] = target: T4, MAGL (Homo sapiens, UniProt Q99685); assay: In vitro competitive activity-based protein profiling (FP-Rh or HT-01 probe, gel-based); type: biochemical; parameters: IC50 MGLL PC3 (Human, μM) / IC50 MGLL PFC (Human, μM): scale not given here; conditions: for % Inh MGLL PC3 (Human, μM) / % Inh MGLL PFC (Human, μM): concentration not given (μM); for % Inh MGLL PFC (Human, μM): prefrontal cortex (PFC) proteome
T4 construct: Proteomes (human prefrontal cortex or cell membrane fractions); from tissue
T4 sequence (Q99685 1-303): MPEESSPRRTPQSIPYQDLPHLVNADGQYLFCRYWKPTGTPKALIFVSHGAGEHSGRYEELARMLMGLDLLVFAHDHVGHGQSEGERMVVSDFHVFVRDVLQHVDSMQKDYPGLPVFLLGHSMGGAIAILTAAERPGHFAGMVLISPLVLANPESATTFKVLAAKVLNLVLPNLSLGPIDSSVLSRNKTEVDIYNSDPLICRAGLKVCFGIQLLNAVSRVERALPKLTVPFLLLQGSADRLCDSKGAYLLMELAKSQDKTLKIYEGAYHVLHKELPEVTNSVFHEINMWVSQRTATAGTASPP
Outline: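 Human prefrontal cortex or cell membrane proteomes (1.0 mg/mL total protein) were preincubated with varying inhibitor concentrations for 30 min at 37° C. FP-Rh or HT-01 probe (50 μM DMSO stock) was then added for 30 min at room temperature, and samples were quenched in SDS loading buffer and resolved by SDS-PAGE.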

Row | SMILES | % Inh 5 mg/kg MGLL (Mouse) (MAGL [1]) | IC50 (MGLL) [nM] | % Inh MGLL Brain (Mouse, μM) (MGLL) | % Inh ABHD6 Brain (Mouse, μM) (ABHD6) | IC50 (ABHD6; mouse proteome) [nM] | % Inh MGLL PC3 (Human, μM) (MAGL [2]; PC3 cell proteome) | IC50 MGLL PC3 (Human, μM) (MAGL [2]; PC3 cell proteome) | % Inh MGLL PFC (Human, μM) (MAGL [2])
1 | CN(Cc1ccc(C(F)(F)F)cc1CN1CCC(C(=O)O)CC1)C1(C)CCN(C(=O)OC(C(F)(F)F)C(F)(F)F)CC1 [Example 137, l-(2-(((1-(((1,1,1,3,3,3-Hexafluoropropan-2-yl)oxy)carbonyl)-4-methylpiperidin-4-yl)(methyl)amino)methyl)-5-(trifluoromethyl)benzyl)piperidine-4-carboxylic acid] | – | – | ### (### is ≥75%) | # (# is ≤25%) | – | ### (### is ≥75%) | – | –
2 | CC(C)(C#Cc1c(Cl)cccc1CN1CCCC12CCN(C(=O)OC(C(F)(F)F)C(F)(F)F)CC2)C(=O)O [Example 1, 4-(2-Chloro-6-((8-(((1,1,1,3,3,3-hexafluoropropan-2-yl)oxy)carbonyl)-1,8-diazaspiro[4.5]decan-1-yl)methyl)phenyl)-2,2-dimethylbut-3-ynoic acid] | – | – | ### (### is ≥75%) | # (# is ≤25%) | – | ### (### is ≥75%) | – | –
3 | CC1(C(=O)O)CN(c2cc(CN3CC4(CCN(C(=O)OC(C(F)(F)F)C(F)(F)F)CC4)C3)cc(C(F)(F)F)c2)CCO1 (stereo not drawn) [Example 22, 4-(3-((7-(((1,1,1,3,3,3-Hexafluoropropan-2-yl)oxy)carbonyl)-2,7-diazaspiro[3.5]nonan-2-yl)methyl)-5-(trifluoromethyl)phenyl)-2-methylmorpholine-2-carboxylic acid] | – | – | ### (### is ≥75%) | ### (### is ≥75%) | – | – | * * * | ### (### is ≥75%)

Now from value to compound:

Row | % Inh 5 mg/kg MGLL (Mouse) (MAGL [1]) | IC50 (MGLL) [nM] | % Inh MGLL Brain (Mouse, μM) (MGLL) | % Inh ABHD6 Brain (Mouse, μM) (ABHD6) | IC50 (ABHD6; mouse proteome) [nM] | % Inh MGLL PC3 (Human, μM) (MAGL [2]; PC3 cell proteome) | IC50 MGLL PC3 (Human, μM) (MAGL [2]; PC3 cell proteome) | % Inh MGLL PFC (Human, μM) (MAGL [2]) | SMILES
4 | ### (### is ≥75%) | < 100 | ### (### is ≥75%) | ## (## is between 25 and 75%) | > 1000 | – | – | – | CS(=O)(=O)N1CCC2(CC1)CN(c1cc(C(F)(F)F)ccc1CN1CCN(C(=O)OC(C(F)(F)F)C(F)(F)F)CC1)C2 [Example 207, 1,1,1,3,3,3-Hexafluoropropan-2-yl 4-(2-(7-(methylsulfonyl)-2,7-diazaspiro[3,5]nonan-2-yl)-4-(trifluoromethyl)benzyl) piperazine-1-carboxylate]
5 | – | – | ### (### is ≥75%) | # (# is ≤25%) | – | – | – | ### (### is ≥75%) | O=C(O)CN1CCC2(CC1)CN(c1cc(C(F)(F)F)ccc1CN1CCCC13CCN(C(=O)OC(C(F)(F)F)C(F)(F)F)CC3)C2 [Example 156, 2-(2-(2-((8-(((1,1,1,3,3,3-Hexafluoropropan-2-yl)oxy)carbonyl)-1,8-diazaspiro[4.5]decan-1-yl)methyl)-5-(trifluoromethyl)phenyl)-2,7-diazaspiro[3.5]nonan-7-yl)acetic acid]
